Organism: Rattus norvegicus
Assay: DrugMatrix - Regimen: Daily Repeat
Format: toxicity, organism-based, Sprague-Dawley
Parameters: regimen Daily Repeat, gender Male, age 6-8 weeks
Conditions: in vivo, po, route oral GAVAGE, […]; for ABSOLUTE BASOPHIL / ABSOLUTE EOSINOPHIL / ABSOLUTE LYMPHOCYTE / ABSOLUTE MONOCYTE / ABSOLUTE SEGMENTED NEUTROPHIL / BASOPHIL / EOSINOPHIL / ERYTHROCYTE COUNT / HEMATOCRIT / HEMOGLOBIN / LEUKOCYTE COUNT / LYMPHOCYTE / MEAN CORPUSCULAR HEMOGLOBIN / MEAN CORPUSCULAR HEMOGLOBIN CONCENTRATION / MEAN CORPUSCULAR VOLUME / MONOCYTE / NEUTROPHIL / NUCLEATED RED BLOOD CELLS / PLATELET COUNT: tissue Blood; for ALANINE AMINOTRANSFERASE / ALBUMIN / ALKALINE PHOSPHATASE / ASPARTATE AMINOTRANSFERASE / BLOOD UREA NITROGEN / CARBON DIOXIDE / CHLORIDE / CHOLESTEROL / CREATINE PHOSPHOKINASE / CREATININE / GLUCOSE / LACTATE DEHYDROGENASE / LIPASE / PHOSPHORUS / POTASSIUM / SODIUM / TOTAL BILIRUBIN / TOTAL PROTEIN / URIC ACID: tissue Plasma
[1] = 0 mg/kg, 72 h, dose level Control, time 3 day
[2] = 0 mg/kg, 120 h, dose level Control, time 5 day
[3] = 100 mg/kg, 72 h, dose level Low, time 3 day

CC(=O)Nc1ccc(O)cc1 [ACETAMINOPHEN]
ABSOLUTE BASOPHIL [1]: 0 CELLS/uL
ABSOLUTE EOSINOPHIL [1]: 0 CELLS/uL
ABSOLUTE LYMPHOCYTE [1]: 6275.67 CELLS/uL
ABSOLUTE MONOCYTE [1]: 40.67 CELLS/uL
ABSOLUTE SEGMENTED NEUTROPHIL [1]: 633.67 CELLS/uL
BASOPHIL [1]: 0%
EOSINOPHIL [1]: 0%
ERYTHROCYTE COUNT [1]: 5.2 x10E6/uL
HEMATOCRIT [1]: 32.78%
HEMOGLOBIN [1]: 12.98 G/DL
LEUKOCYTE COUNT [1]: 6.95 x10E3/uL
LYMPHOCYTE [1]: 90.17%
MEAN CORPUSCULAR HEMOGLOBIN [1]: 24.97 pg
MEAN CORPUSCULAR HEMOGLOBIN CONCENTRATION [1]: 39.62 G/DL
MEAN CORPUSCULAR VOLUME [1]: 63.03 fL
MONOCYTE [1]: 0.67%
NEUTROPHIL [1]: 9.17%
NUCLEATED RED BLOOD CELLS [1]: 0 /100WBC
PLATELET COUNT [1]: 1082.83 x10E3/uL
ALANINE AMINOTRANSFERASE [1]: 69.67 u/L
ALBUMIN [1]: 4.15 G/DL
ALKALINE PHOSPHATASE [1]: 430.5 u/L
ASPARTATE AMINOTRANSFERASE [1]: 90.83 u/L
BLOOD UREA NITROGEN [1]: 13 mg/dL
CARBON DIOXIDE [1]: 33 mmol/L
CHLORIDE [1]: 99.17 MEQ/L
CHOLESTEROL [1]: 70.5 mg/dL
CREATINE PHOSPHOKINASE [1]: 253.33 u/L
CREATININE [1]: 0.13 mg/dL
GLUCOSE [1]: 157.17 mg/dL
LACTATE DEHYDROGENASE [1]: 85 u/L
LIPASE [1]: 10 u/L
PHOSPHORUS [1]: 10.2 mg/dL
POTASSIUM [1]: 5.78 MEQ/L
SODIUM [1]: 144.12 MEQ/L
TOTAL BILIRUBIN [1]: 0.2 mg/dL
TOTAL PROTEIN [1]: 5.8 G/DL
URIC ACID [1]: 0.8 mg/dL
ABSOLUTE BASOPHIL [2]: 0 CELLS/uL
ABSOLUTE EOSINOPHIL [2]: 0 CELLS/uL
ABSOLUTE LYMPHOCYTE [2]: 10431 CELLS/uL
ABSOLUTE MONOCYTE [2]: 90.5 CELLS/uL
ABSOLUTE SEGMENTED NEUTROPHIL [2]: 1111.83 CELLS/uL
BASOPHIL [2]: 0%
EOSINOPHIL [2]: 0%
ERYTHROCYTE COUNT [2]: 5.51 x10E6/uL
HEMATOCRIT [2]: 34.67%
HEMOGLOBIN [2]: 13.5 G/DL
LEUKOCYTE COUNT [2]: 11.63 x10E3/uL
LYMPHOCYTE [2]: 89.67%
MEAN CORPUSCULAR HEMOGLOBIN [2]: 24.5 pg
MEAN CORPUSCULAR HEMOGLOBIN CONCENTRATION [2]: 38.95 G/DL
MEAN CORPUSCULAR VOLUME [2]: 62.87 fL
MONOCYTE [2]: 0.67%
NEUTROPHIL [2]: 9.67%
NUCLEATED RED BLOOD CELLS [2]: 0 /100WBC
PLATELET COUNT [2]: 1052.67 x10E3/uL
ALANINE AMINOTRANSFERASE [2]: 54.67 u/L
ALBUMIN [2]: 4.15 G/DL
ALKALINE PHOSPHATASE [2]: 359.83 u/L
ASPARTATE AMINOTRANSFERASE [2]: 83 u/L
BLOOD UREA NITROGEN [2]: 13.5 mg/dL
CARBON DIOXIDE [2]: 27.17 mmol/L
CHLORIDE [2]: 98.5 MEQ/L
CHOLESTEROL [2]: 66.83 mg/dL
CREATINE PHOSPHOKINASE [2]: 256.17 u/L
CREATININE [2]: 0.19 mg/dL
GLUCOSE [2]: 171.33 mg/dL
LACTATE DEHYDROGENASE [2]: 91.5 u/L
LIPASE [2]: 10.5 u/L
PHOSPHORUS [2]: 8.72 mg/dL
POTASSIUM [2]: 5.34 MEQ/L
SODIUM [2]: 142.53 MEQ/L
TOTAL BILIRUBIN [2]: 0.2 mg/dL
TOTAL PROTEIN [2]: 6.05 G/DL
URIC ACID [2]: 0.6 mg/dL
ABSOLUTE BASOPHIL [3]: 0 CELLS/uL
ABSOLUTE EOSINOPHIL [3]: 0 CELLS/uL
ABSOLUTE LYMPHOCYTE [3]: 7022 CELLS/uL
ABSOLUTE MONOCYTE [3]: 162.33 CELLS/uL
ABSOLUTE SEGMENTED NEUTROPHIL [3]: 715.67 CELLS/uL
BASOPHIL [3]: 0%
EOSINOPHIL [3]: 0%
ERYTHROCYTE COUNT [3]: 5.13 x10E6/uL
HEMATOCRIT [3]: 32.6%
HEMOGLOBIN [3]: 12.9 G/DL
LEUKOCYTE COUNT [3]: 7.9 x10E3/uL
LYMPHOCYTE [3]: 88.67%
MEAN CORPUSCULAR HEMOGLOBIN [3]: 25.13 pg
MEAN CORPUSCULAR HEMOGLOBIN CONCENTRATION [3]: 39.57 G/DL
MEAN CORPUSCULAR VOLUME [3]: 63.53 fL
MONOCYTE [3]: 2%
NEUTROPHIL [3]: 9.33%
NUCLEATED RED BLOOD CELLS [3]: 0 /100WBC
PLATELET COUNT [3]: 1191.67 x10E3/uL
ALANINE AMINOTRANSFERASE [3]: 62 u/L
ALBUMIN [3]: 4.1 G/DL
ALKALINE PHOSPHATASE [3]: 340 u/L
ASPARTATE AMINOTRANSFERASE [3]: 77.67 u/L
BLOOD UREA NITROGEN [3]: 15.33 mg/dL
CARBON DIOXIDE [3]: 33.67 mmol/L
CHLORIDE [3]: 98.67 MEQ/L
CHOLESTEROL [3]: 85 mg/dL
CREATINE PHOSPHOKINASE [3]: 201.67 u/L
CREATININE [3]: 0.15 mg/dL
GLUCOSE [3]: 165 mg/dL
LACTATE DEHYDROGENASE [3]: 82.67 u/L
LIPASE [3]: 10 u/L
PHOSPHORUS [3]: 11 mg/dL
POTASSIUM [3]: 5.65 MEQ/L
SODIUM [3]: 145.13 MEQ/L
TOTAL BILIRUBIN [3]: 0.2 mg/dL
TOTAL PROTEIN [3]: 5.9 G/DL
URIC ACID [3]: 0.73 mg/dL

— ChEMBL document CHEMBL3885881, “DrugMatrix”
